Reference: patent US10328143B2, “Hemagglutinin-binding peptide” (priority 2014, dated 2019)

Columns and labels:
[1] = test system: highly pathogenic avian influenza virus H5N1 A/whooper swan/Hokkaido/1/08 (5×MLD50); set-up: species or system mice; settings: mouse, in vivo
[2] = test system: influenza virus H5N1 Vac-3; type: cell-based; settings: for anti-viral effect compared with zanamivir (Relenza): 0.01, 0.1, 1 μM
[3] = test system: influenza virus H2N2-Adachi strain; type: cell-based
[4] = test system: influenza virus H1N1-pdm 2619; type: cell-based
[5] = test system: highly pathogenic avian influenza virus H5N1: A/ws/Hokkaido/1/08 (clade 2.3), A/ws/Mongolia/3/05 (clade 2.2), A/Vietnam/UT3040/04 (clade 1); type: cell-based

Molecule	lethality [1]	treatment effect [1]	anti-viral effect compared with positive control iHA-24 [2]	anti-viral effect compared with zanamivir (Relenza) [2]	anti-viral effect compared with zanamivir (Relenza) [3]	number of plaques [3]	anti-viral effect compared with zanamivir (Relenza) [4]	lethal rate [1]	effect compared with iHA-24 [5]	effect compared with zanamivir [5]
CC(=O)N[C@H]1[C@H]([C@H](O)[C@H](O)CO)OC(C(=O)O)=C[C@@H]1N=C(N)N [zanamivir]	a dead individual is found	no treatment effect is obtained	–	–	–	–	–	–	–	–
Cyclo(Ac-Trp-Ser-MePhe-MeGly-His-Val-His-Tyr-Ser-Val-MePhe-Asn-MeAla-Val-Cys)-amide [iHA-102]	–	–	markedly higher than that of the peptide iHA-24	comparable to that of zanamivir	–	–	–	–	–	–
Cyclo(Ac-Trp-Thr-MeGly-Asp-MePhe-MePhe-Ser-MeSer-His-Tyr-Thr-Val-Pro-Arg-Cys)-amide [iHA-100]	–	–	markedly higher than that of the peptide iHA-24	comparable to that of zanamivir	comparable to that of zanamivir	dose-dependently decreased the number of plaques	comparable to that of zanamivir	a decrease in lethal rate is observed	markedly higher than that of iHA-24	on the same level as that of zanamivir
Cyclo(Ac-Trp-Thr-MeGly-Thr-His-Val-Arg-Tyr-Thr-Val-MePhe-Asn-MeAla-Ser-Cys)-amide [iHA-103]	–	–	markedly higher than that of the peptide iHA-24	comparable to that of zanamivir	–	–	–	–	–	–
